Results on 23 compounds are retold here after patent US10501425B2, “Microbiocidal oxadiazole derivatives” (SYNGENTA PARTICIPATIONS AG, priority 2015, dated 2019).

Bounds are passed on as bounds.

Assay [1] deals with Puccinia recondita f. Sp. Tritici. In words: Puccinia recondita f. sp. tritici / wheat / leaf disc curative (brown rust). In kind it is in vivo. Conditions: foliar, 24 h, 200 ppm in the applied formulation, wheat leaf segments cv. Kanzler, curative (applied 1 day after inoculation), compared to untreated, read-out: disease control. On the procedure:
(§1) Leaf disks or leaf segments of various plant species are cut from plants grown in a greenhouse. The cut leaf disks or segments are placed in multiwell plates (24-well format) onto water agar. The leaf disks are sprayed with a test solution before (preventative) or after (curative) inoculation. Compounds to be tested are prepared as DMSO solutions (max. 10 mg/ml) which are diluted to the appropriate concentration with 0.025% Tween20 just before spraying. The inoculated leaf disks or segments are incubated under defined conditions (temperature, relative humidity, light, etc.) according to the respective test system. A single evaluation of disease level is carried out 3 to 14 days after inoculation, depending on the pathosystem. Percent disease control relative to the untreated check leaf disks or segments is then calculated.
Wheat leaf segments cv. Kanzler are placed on agar in multiwell plates (24-well format). The leaf segments are then inoculated with a spore suspension of the fungus. Plates were stored in darkness at 19° C. and 75% relative humidity. The formulated test compound diluted in water was applied 1 day after inoculation. The leaf segments were incubated at 19° C. and 75% relative humidity under a light regime of 12 hours light/12 hours darkness in a climate cabinet and the activity of a compound was assessed as percent disease control compared to untreated when an appropriate level of disease damage appears in untreated check leaf segments (6 to 8 days after application).
The following compounds at 200 ppm in the applied formulation give at least 80% disease control in this test when compared to untreated control leaf disks under the same conditions, which show extensive disease development.

For assay [2], the system named is Glomerella lacenarium (Colletotrichum lagenarium). As to the kind of experiment: Glomerella lagenarium liquid culture / cucumber / preventative (anthracnose). Conditions: Colletotrichum orbiculare; 20 ppm in the applied formulation; liquid culture (PDB), growth inhibition measured photometrically 3 to 4 days after application; compared to untreated; read-out: disease control. Type of assay: cell-based. How it is done: Mycelia fragments or conidia suspensions of a fungus prepared either freshly from liquid cultures of the fungus or from cryogenic storage, are directly mixed into nutrient broth. DMSO solutions of the test compound (max. 10 mg/ml) are diluted with 0.025% Tween20 by a factor of 50 and 10 μl of this solution is pipetted into a microtiter plate (96-well format). The nutrient broth containing the fungal spores/mycelia fragments is then added to give an end concentration of the tested compound. The test plates are incubated in the dark at 24° C. and 96% relative humidity. The inhibition of fungal growth is determined photometrically after 2 to 7 days, depending on the pathosystem, and percent antifungal activity relative to the untreated check is calculated.
Conidia of the fungus from cryogenic storage are directly mixed into nutrient broth (PDB—potato dextrose broth). After placing a (DMSO) solution of test compound into a microtiter plate (96-well format), the nutrient broth containing the fungal spores is added.
The following compounds at 20 ppm in the applied formulation give at least 80% disease control in this test when compared to untreated control under the same conditions, which show extensive disease development.

Assay [3] deals with Puccinia recondita f. Sp. Tritici. In words: Puccinia recondita f. sp. tritici / wheat / leaf disc preventative (brown rust). In kind it is in vivo. Conditions: foliar, 200 ppm in the applied formulation, wheat leaf segments cv. Kanzler, preventative (inoculated 1 day after application), compared to untreated, read-out: disease control. On the procedure: as §1, with “calculated. Wheat leaf segments cv. Kanzler were placed on agar in multiwell plates (24-well format) and sprayed with the formulated test compound diluted in water. The leaf disks were inoculated with a spore suspension of the fungus 1 day after application. The inoculated leaf segments were incubated at 19° C. and 75% relative humidity (rh) under a light regime of 12 hours light/12 hours darkness in a climate cabinet and the activity of a compound was assessed as percent disease control compared to untreated when an appropriate level of disease damage appears in untreated check leaf segments (7 to 9 days after application). The following compounds at 200 ppm in the applied formulation give at least 80% disease control in this test when compared to untreated control leaf disks under the same conditions, which show extensive disease development.” for “calculated.”

Take `CC(C)(C)COC(=O)NCc1ccc(-c2noc(C(F)(F)F)n2)cn1` [Compound 2.34, 2,2-dimethylpropyl N-[[5-[5-(trifluoromethyl)-1,2,4-oxadiazol-3-yl]-2-pyridyl]methyl]carbamate]: the pest or weed control at 200 ppm in assay [1] was no less than 80%. Further, the inhibition of growth at 20 ppm in assay [2] was no less than 80%.
With `COCC(=O)NCc1ccc(-c2noc(C(F)(F)F)n2)cc1C(F)(F)F` [Compound 1.70, 2-methoxy-N-[[2-(trifluoromethyl)-4-[5-(trifiuoromethyl)-1,2,4-oxadiazol-3-yl]phenyl]methyl]acetamide], the inhibition of growth at 20 ppm in assay [2] was no less than 80%.
With `CC(=O)NCc1ccc(-c2noc(C(F)(F)F)n2)cn1` [Compound 1.75, N-[[5-[5-(trifluoromethyl)-1,2,4-oxadiazol-3-yl]-2-pyridyl]methyl]acetamide], the pest or weed control at 200 ppm in assay [3] and in assay [1] was no less than 80% throughout. In addition, the inhibition of growth at 20 ppm in assay [2] was no less than 80%.
`CCC(C)C(=O)NCc1ccc(-c2noc(C(F)(F)F)n2)cc1Cl` (stereo not shown) [Compound 1.58, N-[[2-chloro-4-[5-(trifluoromethyl)-1,2,4-oxadiazol-3-yl]phenyl]methyl]-2-methyl-butanamide]: in assay [2], the inhibition of growth at 20 ppm is no less than 80%.
In the case of `CC#CCOC(=O)NCc1ccc(-c2noc(C(F)(F)F)n2)cn1` [Compound 2.21, but-2-ynyl N-[[5-[5-(trifluoromethyl)-1,2,4-oxadiazol-3-yl]-2-pyridyl]methyl]carbamate], the pest or weed control at 200 ppm in assay [3] and in assay [1] was no less than 80% in each case. Also, the inhibition of growth at 20 ppm in assay [2] was no less than 80%.
As for `COCCC(=O)NCc1ccc(-c2noc(C(F)(F)F)n2)c(F)c1F` [Compound 1.53, N-[[2,3-difluoro-4-[5-(trifluoromethyl)-1,2,4-oxadiazol-3-yl]phenyl]methyl]-3-methoxy-propanamide], the pest or weed control at 200 ppm in assay [3] and in assay [1] was no less than 80% throughout. In assay [2], the inhibition of growth at 20 ppm is no less than 80%.
In the case of `O=C(NCc1ccc(-c2noc(C(F)(F)F)n2)cn1)OCCCCl` [Compound 2.31, 3-chloropropyl N-[[5-[5-(trifluoromethyl)-1,2,4-oxadiazol-3-yl]-2-pyridyl]methyl]carbamate], the pest or weed control at 200 ppm in assay [3] and in assay [1] was no less than 80% throughout. In assay [2], the inhibition of growth at 20 ppm is no less than 80%.
Regarding `COCCCC(=O)NCc1ccc(-c2noc(C(F)(F)F)n2)cc1Cl` [Compound 1.60, N-[[2-chloro-4-[5-(trifluoromethyl)-1,2,4-oxadiazol-3-yl]phenyl]methyl]-4-methoxy-butanamide], the pest or weed control at 200 ppm in assay [3] and in assay [1] was no less than 80% throughout. For the same compound, the inhibition of growth at 20 ppm in assay [2] was no less than 80%.
With `CC(C)(C)COC(=O)NCc1ccc(-c2noc(C(F)(F)F)n2)cc1` [Compound 2.18, 2,2-dimethylpropyl N-[[4-[5-(trifluoromethyl)-1,2,4-oxadiazol-3-yl]phenyl]methyl]carbamate], the pest or weed control at 200 ppm in assay [3] and in assay [1] was no less than 80% in each case. The inhibition of growth at 20 ppm in assay [2] was no less than 80%.
For `N#CCC(=O)NCc1ccc(-c2noc(C(F)(F)F)n2)cn1` [Compound 1.73, 2-cyano-N-[[5-[5-(trifluoromethyl)-1,2,4-oxadiazol-3-yl]-2-pyridyl]methyl]acetamide], the pest or weed control at 200 ppm in assay [1] is no less than 80%. The inhibition of growth at 20 ppm in assay [2] is no less than 80%.
For the compound `COCCC(=O)NCc1ccc(-c2noc(C(F)(F)F)n2)c(F)c1` [Compound 1.79, N-[[3-fluoro-4-[5-(trifluoromethyl)-1,2,4-oxadiazol-3-yl]phenyl]methyl]-3-methoxy-propanamide], the pest or weed control at 200 ppm in assay [3] and in assay [1] was no less than 80% each time. In addition, the inhibition of growth at 20 ppm in assay [2] is no less than 80%.
On to `CC(C)OC(=O)NCc1ccc(-c2noc(C(F)(F)F)n2)cn1` [Compound 2.29, isopropyl N-[[5-[5-(trifluoromethyl)-1,2,4-oxadiazol-3-yl]-2-pyridyl]methyl]carbamate], for which the pest or weed control at 200 ppm in assay [3] and in assay [1] was no less than 80% each time. In addition, the inhibition of growth at 20 ppm in assay [2] is no less than 80%.
Regarding `CCCCCOC(=O)NCc1ccc(-c2noc(C(F)(F)F)n2)cc1` [Compound 2.9, pentyl N-[[4-[5-(trifluoromethyl)-1,2,4-oxadiazol-3-yl]phenyl]methyl]carbamate], in assay [3], the pest or weed control at 200 ppm is no less than 80%.
Turning to `COCC(=O)NCc1ccc(-c2noc(C(F)(F)F)n2)cc1Cl` [Compound 1.57, N-[[2-chloro-4-[5-(trifluoromethyl)-1,2,4-oxadiazol-3-yl]phenyl]methyl]-2-methoxy-acetamide], the pest or weed control at 200 ppm in assay [1] is no less than 80%. In addition, the inhibition of growth at 20 ppm in assay [2] was no less than 80%.
For `O=C(NCCCCl)NCc1ccc(-c2noc(C(F)(F)F)n2)cn1` [Compound 3.19], in assay [3], the pest or weed control at 200 ppm is no less than 80%.
For the compound `CCCC(=O)NCc1ccc(-c2noc(C(F)(F)F)n2)cc1Cl` [Compound 1.52, N-[[2-chloro-4-[5-(trifiuoromethyl)-1,2,4-oxadiazol-3-yl]phenyl]methyl]butanamide], the inhibition of growth at 20 ppm in assay [2] was no less than 80%.
Turning to `CC(C)CNC(=O)NCc1ccc(-c2noc(C(F)(F)F)n2)cc1` [Compound 3.11, 1-isobutyl-3-[[4-[5-(trifluoromethyl)-1,2,4-oxadiazol-3-yl]phenyl]methyl]urea], the pest or weed control at 200 ppm in assay [3] was no less than 80%. Moreover, the inhibition of growth at 20 ppm in assay [2] was no less than 80%.
For the compound `CCCCCOC(=O)NCc1ccc(-c2noc(C(F)(F)F)n2)cn1` [Compound 2.23, pentyl N-[[5-[5-(trifluoromethyl)-1,2,4-oxadiazol-3-yl]-2-pyridyl]methyl]carbamate], the pest or weed control at 200 ppm in assay [3] is no less than 80%. Besides, the inhibition of growth at 20 ppm in assay [2] is no less than 80%.
As for `CC(=O)NCc1ccc(-c2noc(C(F)(F)F)n2)cc1Cl` [Compound 1.64, N-[[2-chloro-4-[5-(trifluoromethyl)-1,2,4-oxadiazol-3-yl]phenyl]methyl]acetamide], the pest or weed control at 200 ppm in assay [3] is no less than 80%. Moreover, the inhibition of growth at 20 ppm in assay [2] was no less than 80%.
Turning to `CC(C)C(=O)NCc1ccc(-c2noc(C(F)(F)F)n2)cc1Cl` [Compound 1.50, N-[[2-chloro-4-[5-(trifluoromethyl)-1,2,4-oxadiazol-3-yl]phenyl]methyl]-2-methyl-propanamide], the inhibition of growth at 20 ppm in assay [2] was no less than 80%.
For `COCCC(=O)NCc1ccc(-c2noc(C(F)(F)F)n2)cc1Cl` [Compound 1.55, N-[[2-chloro-4-[5-(trifluoromethyl)-1,2,4-oxadiazol-3-yl]phenyl]methyl]-3-methoxy-propanamide], in assay [2], the inhibition of growth at 20 ppm is no less than 80%.
With `CC(C)(C)CNC(=O)NCc1ccc(-c2noc(C(F)(F)F)n2)cc1` [Compound 3.8, 1-(2,2-dimethylpropyl)-3-[[4-[5-(trifluoromethyl)-1,2,4-oxadiazol-3-yl]phenyl]methyl]urea], the pest or weed control at 200 ppm in assay [3] was no less than 80%.
For `CCCCNC(=O)NCc1ccc(-c2noc(C(F)(F)F)n2)cn1` [Compound 3.20, 1-butyl-3-[[5-[5-(trifluoromethyl)-1,2,4-oxadiazol-3-yl]-2-pyridyl]methyl]urea], the pest or weed control at 200 ppm in assay [3] was no less than 80%. In addition, the inhibition of growth at 20 ppm in assay [2] is no less than 80%.
